Source: ChEMBL document CHEMBL1201862, “PubChem BioAssay data set” (2004)
Calls of active or inactive are those of the source. Rule as the data show it, for most assays here: actives have a measured EC50 and inactives only a lower limit.

How the values were obtained:
[1] = Trypanosoma cruzi growth suppression in host cells – NIH3T3 host cells, beta-gal luminescence, confirmation (AID 2044); type: functional, cell-based;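 also: intracellular parasites grown in NIH/3T3 mouse fibroblasts as host cells; luminescent beta-galactosidase reporter signal from transgenic T. cruzi replicating inside host cells; inhibitors lower the luminescence signal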
[2] = NIH3T3 cell viability loss – ATP luminescence, mouse fibroblasts, counter-screen, dose response (AID 2010); type: functional, cell-based;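 also: cells exposed to compound for about 90 hours before reading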
cells [3] = assay: cells
[4] = A Cell Based Secondary Assay To Explore Cytotoxicity of Compounds that Sensitize Mycobacterium Tuberculosis to Beta-Lactam Antibiotics.; type: functional
HeLa = assay: Cytotoxicity counterscreen assay for transcriptional activators of heat shock protein 70 (Hsp70). [Related pubchem assays: 1203, 1252 ]; type: functional; conditions: Homo sapiens
[5] = Luminescence Cell-Based Dose Retest to Confirm Inhibitors of Cancer Stem Cells. [Related pubchem assays (depositor defined):AID2717, AID2721]; type: functional; conditions: Homo sapiens
Vero = assay: mammalian cell viability reduction – secondary assay, cytotoxicity control for West Nile virus antiviral project, dose response (AID 1650); type: functional; conditions: Chlorocebus sabaeus
[6] = molecular target: T1, Calpain-2 catalytic subunit (Sus scrofa, UniProt P43367); assay: m-calpain protease blockers, concentration series – biochemical, fluorogenic peptide substrate, dose response (AID 1420); type: functional
T1 sequence (P43367 whole entry): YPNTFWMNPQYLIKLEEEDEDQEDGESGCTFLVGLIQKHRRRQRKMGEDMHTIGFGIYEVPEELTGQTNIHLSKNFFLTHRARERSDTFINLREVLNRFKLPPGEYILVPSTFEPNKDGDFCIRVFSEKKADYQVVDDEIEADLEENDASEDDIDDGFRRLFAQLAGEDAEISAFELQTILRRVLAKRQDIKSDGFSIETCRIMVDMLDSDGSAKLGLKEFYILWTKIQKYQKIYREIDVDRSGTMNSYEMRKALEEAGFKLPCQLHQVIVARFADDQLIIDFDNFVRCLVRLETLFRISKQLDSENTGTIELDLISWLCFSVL

[7] = system: Streptococcus sp. 'group A'; assay: Streptococcus pyogenes SK(-)GAS viability under kanamycin – luminescence, BacTiterGlo, confirmation, counter-screen for streptokinase expression inhibitor project, dose response (AID 1900); type: functional, organism-based
Streptokinase A = molecular target: T2, Streptokinase A (Streptococcus pyogenes serotype M1, UniProt P10520); assay: viability-normalized secreted streptokinase activity reduction – plasminogen activation absorbance, OD405, dose response (AID 1914); type: functional, Streptococcus pyogenes M1 GAS;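 also: secreted streptokinase activity via plasminogen activation per viability signal from cell pellet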
T2 sequence (P10520 whole entry): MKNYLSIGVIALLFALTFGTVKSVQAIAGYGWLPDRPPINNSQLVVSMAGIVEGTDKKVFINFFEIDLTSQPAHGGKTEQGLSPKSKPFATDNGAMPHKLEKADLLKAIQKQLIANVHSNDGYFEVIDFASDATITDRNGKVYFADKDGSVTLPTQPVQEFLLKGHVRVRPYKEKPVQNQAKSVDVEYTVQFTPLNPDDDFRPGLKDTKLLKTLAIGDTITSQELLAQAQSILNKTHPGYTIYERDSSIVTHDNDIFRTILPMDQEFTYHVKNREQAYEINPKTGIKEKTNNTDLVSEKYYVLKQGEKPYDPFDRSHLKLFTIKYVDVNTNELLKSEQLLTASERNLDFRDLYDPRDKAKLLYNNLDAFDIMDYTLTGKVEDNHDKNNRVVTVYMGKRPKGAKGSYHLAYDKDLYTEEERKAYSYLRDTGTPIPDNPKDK

[8] = molecular target: T3, Epstein-Barr nuclear antigen 1 (Epstein-Barr virus (strain B95-8) (HHV-4) (Human herpesvirus 4), UniProt P03211); assay: inhibition of EBV nuclear antigen 1 DNA binding – biochemical, fluorescence polarization, 1536-well, dose response (AID 2381); parameters: species or system human gammaherpesvirus 4;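 also: fluorescence polarization of a Cy5 DNA probe bound by EBNA-1 protein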
T3 sequence (P03211 whole entry): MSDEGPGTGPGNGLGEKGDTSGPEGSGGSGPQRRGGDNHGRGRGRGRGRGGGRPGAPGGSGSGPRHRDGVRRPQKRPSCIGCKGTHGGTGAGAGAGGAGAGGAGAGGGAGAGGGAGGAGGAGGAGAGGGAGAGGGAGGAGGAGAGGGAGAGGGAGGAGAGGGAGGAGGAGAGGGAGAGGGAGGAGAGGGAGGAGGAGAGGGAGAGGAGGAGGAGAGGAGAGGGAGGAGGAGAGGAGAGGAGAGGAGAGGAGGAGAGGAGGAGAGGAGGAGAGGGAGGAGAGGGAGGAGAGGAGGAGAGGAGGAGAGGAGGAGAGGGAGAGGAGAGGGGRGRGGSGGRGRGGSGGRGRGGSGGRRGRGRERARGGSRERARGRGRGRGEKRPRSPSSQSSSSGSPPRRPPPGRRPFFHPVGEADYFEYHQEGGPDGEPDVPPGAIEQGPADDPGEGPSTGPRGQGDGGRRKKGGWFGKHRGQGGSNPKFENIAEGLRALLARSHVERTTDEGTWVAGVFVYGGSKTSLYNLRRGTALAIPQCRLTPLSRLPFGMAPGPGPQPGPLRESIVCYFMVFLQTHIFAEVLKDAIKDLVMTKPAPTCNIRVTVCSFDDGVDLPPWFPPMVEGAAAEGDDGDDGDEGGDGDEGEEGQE

Streptococcus = assay: GAS UMAA2166 growth inhibition – luminescence, BacTiterGlo, counter-screen for streptokinase expression inhibitor project, dose response (AID 1915); type: functional, organism-based;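 also: potency for reduction of bacterial viability or growth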
[9] = molecular target: T4, Lytic switch protein BZLF1 (Epstein-Barr virus (strain B95-8) (HHV-4) (Human herpesvirus 4), UniProt P03206); assay: inhibition of BZLF1 ZTA DNA binding – biochemical, fluorescence polarization, Epstein-Barr virus, 1536-well, counter-screen for EBNA-1 inhibitor project, dose response (AID 2377); parameters: species or system human gammaherpesvirus 4;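 also: fluorescence polarization of Cy5-labelled ZRE DNA probe bound by purified Zta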
T4 sequence (P03206 whole entry): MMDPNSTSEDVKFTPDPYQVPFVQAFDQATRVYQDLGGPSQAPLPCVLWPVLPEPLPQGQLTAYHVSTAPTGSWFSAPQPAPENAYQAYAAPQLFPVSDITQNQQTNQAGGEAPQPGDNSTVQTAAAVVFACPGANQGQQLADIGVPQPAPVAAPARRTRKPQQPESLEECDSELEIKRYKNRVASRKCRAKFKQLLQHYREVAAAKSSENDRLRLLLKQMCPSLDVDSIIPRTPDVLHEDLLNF

[10] = Luminescence Cell-Based Dose Response HTS to Identify Inhibitors of 5'UTR Stem-Loop Driven Prion Protein mRNA Translation in H4 Neuroglioblastoma Cells. [Related pubchem assays: 1827 (Project Summary), 1813 (Primary HTS)]; type: functional
BJ [11] = assay: BJ-TERT-LT-ST fibroblast viability loss – cell-based, RAS-independent, luminescence, dose response (AID 1935); type: functional; conditions: Homo sapiens;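 also: BJ fibroblasts immortalized with TERT plus LT and ST oncogenes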
[12] = luciferase reporter signal reduction – luminescence, H4-C neuroglioblastoma cells, dose response (AID 2458); type: functional, cell-based;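 also: H4 neuroglioblastoma cells stably carrying a luciferase reporter gene fusion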
[13] = alpha-synuclein stem-loop translation blockers – luminescence, H4 neuroglioblastoma cells, dose confirmation, confirmation (AID 2454); type: functional, cell-based;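 also: H4 neuroglioblastoma cells carrying an alpha-synuclein 5'UTR luciferase reporter; potency for inhibition of the luciferase signal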
[14] = alpha-synuclein stem-loop luciferase translation blockers – H4 neuroglioma cells, luminescence, confirmation (AID 1988); type: functional, cell-based
cells [15] = type: functional, cell-based
[16] = Shn3 3'UTR reporter signal decrease – cell-based, Clone20 osteoblasts, firefly luciferase, cherry-pick, set 2, Schnurri-3 inhibitor project, dose response (AID 720490); type: functional;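 also: actives lower the luminescence signal as inhibitors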
[17] = loss of viability in HepG2 cells – cell-based, CellTiter-Glo, cherry-picked, cytotoxicity control for Shn3 inhibitor project, dose response (AID 624134); type: functional
BJ [18] = assay: BJ-TERT fibroblast viability loss – cell-based, RAS-independent, luminescence, dose response (AID 1933); type: functional; conditions: Homo sapiens
[19] = reduction of Shn3 3'UTR-driven luciferase in osteoblasts – cell-based, Clone20 osteoblasts, firefly luciferase, cherry-picked, dose response (AID 624132); type: functional;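 also: firefly luciferase luminescence from reporter carrying the Shn3 3'UTR in osteoblasts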
BJ [20] = assay: cells; type: functional, cell-based; conditions: Homo sapiens
[21] = luciferase reporter signal suppression in cells – H4 neuroglioma cells, luminescence, dose response (AID 1990); type: functional, cell-based
[22] = DRD fibroblast viability loss – cell-based, non-viral oncogenic, luminescence, dose response (AID 1934); type: functional; conditions: Homo sapiens
[23] = fluconazole-exposed Candida albicans growth modulators – fluorescence, retest, confirmation (AID 2467); type: functional, cell-based
[24] = NIH-3T3 fibroblast cytotoxicity, dose response, cytotoxicity control, cell-based, fluorescence, Alamar Blue, secondary assay (AID 2327); type: functional;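 also: NIH-3T3 mouse fibroblasts cultured with fluconazole at 8 µg/mL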
HT-1080 = assay: HT1080 cell viability loss – fluorescence readout (AID 620); type: functional, cell-based; conditions: Homo sapiens
[25] = molecular target: Luciferin 4-monooxygenase (Photinus pyralis, UniProt P08659); assay: Counter Screen for Luciferase-based Assay Positives. [Related pubchem assays: 620, 618, 411 ]
[26] = molecular target: Glyceraldehyde-3-phosphate dehydrogenase (Homo sapiens, UniProt P04406)
[27] = molecular target: Peroxisome proliferator-activated receptor gamma/Nuclear receptor coactivator 2 (Homo sapiens, UniProt P37231); assay: TR-FRET dose response biochemical High Throughput Screening assay for agonists of the steroid receptor coactivator 2 (SRC-2) recruitment by the peroxisome proliferator-activated receptor gamma (PPAR gamma): non-selective agonists. [Related pubchem assays: 1297, 1032 ]; type: functional
[28] = molecular target: Peroxisome proliferator-activated receptor gamma/Nuclear receptor coactivator 1 (Homo sapiens, UniProt P37231); assay: TR-FRET dose response biochemical High Throughput Screening assay for agonists of the steroid receptor coactivator 1 (SRC-1) recruitment by the peroxisome proliferator-activated receptor gamma (PPAR gamma): non-selective agonists. [Related pubchem assays (depositor defined):AID1300, AID1808, AID504735, AID631]; type: protein assay
[29] = molecular target: Peroxisome proliferator-activated receptor gamma/Nuclear receptor coactivator 3 (Homo sapiens, UniProt P37231); assay: TR-FRET dose response biochemical High Throughput Screening assay for agonists of the steroid receptor coactivator 3 (SRC-3) recruitment by the peroxisome proliferator-activated receptor gamma (PPAR gamma): non-selective agonists. [Related pubchem assays: 1301 (Confirmation screen.), 1048 (Primary screen.)]; type: functional
Chain of Peroxisome proliferator-activated receptor gamma/Nuclear receptor coactivator 3 (P37231 whole entry): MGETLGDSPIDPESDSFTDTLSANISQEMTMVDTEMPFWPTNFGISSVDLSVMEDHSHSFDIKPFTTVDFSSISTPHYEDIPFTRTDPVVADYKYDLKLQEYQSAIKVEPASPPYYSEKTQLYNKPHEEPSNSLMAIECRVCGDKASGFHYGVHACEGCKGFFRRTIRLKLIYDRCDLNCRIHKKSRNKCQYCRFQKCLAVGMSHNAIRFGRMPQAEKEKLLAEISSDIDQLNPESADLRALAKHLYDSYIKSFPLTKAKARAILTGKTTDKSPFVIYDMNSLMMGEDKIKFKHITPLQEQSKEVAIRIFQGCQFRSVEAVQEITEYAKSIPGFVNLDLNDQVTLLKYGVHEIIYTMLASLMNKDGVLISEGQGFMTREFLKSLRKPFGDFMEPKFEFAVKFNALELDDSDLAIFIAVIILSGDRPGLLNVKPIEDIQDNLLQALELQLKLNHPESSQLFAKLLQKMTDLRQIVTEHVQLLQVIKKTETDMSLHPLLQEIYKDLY
Chain of Peroxisome proliferator-activated receptor gamma/Nuclear receptor coactivator 3 (Q9Y6Q9 whole entry, further chain): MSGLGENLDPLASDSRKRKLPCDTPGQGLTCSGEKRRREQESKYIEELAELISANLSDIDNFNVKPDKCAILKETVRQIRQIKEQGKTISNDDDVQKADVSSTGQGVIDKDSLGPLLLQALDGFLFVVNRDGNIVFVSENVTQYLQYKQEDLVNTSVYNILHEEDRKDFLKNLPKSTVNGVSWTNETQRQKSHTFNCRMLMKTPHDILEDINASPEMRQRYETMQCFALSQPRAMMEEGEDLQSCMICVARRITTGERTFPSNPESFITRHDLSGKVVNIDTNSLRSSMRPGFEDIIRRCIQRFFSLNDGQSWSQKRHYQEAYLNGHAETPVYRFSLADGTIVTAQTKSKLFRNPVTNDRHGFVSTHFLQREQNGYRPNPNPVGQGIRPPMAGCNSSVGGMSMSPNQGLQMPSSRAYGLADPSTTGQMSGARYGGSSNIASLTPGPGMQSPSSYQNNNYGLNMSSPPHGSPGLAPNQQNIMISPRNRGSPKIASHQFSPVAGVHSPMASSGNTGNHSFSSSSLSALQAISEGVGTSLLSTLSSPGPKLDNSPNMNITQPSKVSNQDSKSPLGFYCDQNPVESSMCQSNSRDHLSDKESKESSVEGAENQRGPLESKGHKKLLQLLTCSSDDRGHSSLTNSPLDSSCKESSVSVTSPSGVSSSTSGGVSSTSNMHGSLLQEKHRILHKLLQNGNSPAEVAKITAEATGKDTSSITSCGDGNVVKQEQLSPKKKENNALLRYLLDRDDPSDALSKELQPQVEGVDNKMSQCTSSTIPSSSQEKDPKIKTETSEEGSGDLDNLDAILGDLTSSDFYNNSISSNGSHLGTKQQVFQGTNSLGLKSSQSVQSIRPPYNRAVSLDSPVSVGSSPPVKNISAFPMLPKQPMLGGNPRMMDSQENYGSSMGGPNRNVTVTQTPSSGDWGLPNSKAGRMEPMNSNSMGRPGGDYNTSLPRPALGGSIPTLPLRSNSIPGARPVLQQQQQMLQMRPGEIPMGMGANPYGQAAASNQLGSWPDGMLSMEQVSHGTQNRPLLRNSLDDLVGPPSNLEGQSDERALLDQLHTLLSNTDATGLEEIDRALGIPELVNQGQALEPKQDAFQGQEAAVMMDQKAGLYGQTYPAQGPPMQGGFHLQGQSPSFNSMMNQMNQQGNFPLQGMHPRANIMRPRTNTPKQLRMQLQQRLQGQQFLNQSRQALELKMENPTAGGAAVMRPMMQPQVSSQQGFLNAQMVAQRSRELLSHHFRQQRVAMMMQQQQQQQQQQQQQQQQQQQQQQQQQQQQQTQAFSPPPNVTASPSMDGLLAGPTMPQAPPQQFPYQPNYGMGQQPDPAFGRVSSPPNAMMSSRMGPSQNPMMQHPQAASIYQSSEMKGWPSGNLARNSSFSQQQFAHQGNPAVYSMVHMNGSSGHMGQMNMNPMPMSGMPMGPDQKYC

Chain of Luciferin 4-monooxygenase (P08659 whole entry): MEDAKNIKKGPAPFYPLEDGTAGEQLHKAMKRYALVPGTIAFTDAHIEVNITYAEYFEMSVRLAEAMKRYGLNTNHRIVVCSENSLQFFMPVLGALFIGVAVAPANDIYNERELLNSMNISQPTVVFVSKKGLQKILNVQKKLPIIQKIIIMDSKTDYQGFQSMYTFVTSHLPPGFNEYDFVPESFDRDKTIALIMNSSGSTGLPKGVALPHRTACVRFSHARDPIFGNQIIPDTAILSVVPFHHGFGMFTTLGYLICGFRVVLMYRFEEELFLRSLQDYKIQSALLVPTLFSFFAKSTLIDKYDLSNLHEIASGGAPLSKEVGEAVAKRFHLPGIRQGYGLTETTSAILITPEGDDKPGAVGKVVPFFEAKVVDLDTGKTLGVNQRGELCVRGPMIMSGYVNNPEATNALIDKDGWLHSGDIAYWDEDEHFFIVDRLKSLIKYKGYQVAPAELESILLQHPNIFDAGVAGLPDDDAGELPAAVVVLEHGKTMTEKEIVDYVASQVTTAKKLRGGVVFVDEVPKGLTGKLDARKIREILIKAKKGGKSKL
Chain of Glyceraldehyde-3-phosphate dehydrogenase (P04406 whole entry): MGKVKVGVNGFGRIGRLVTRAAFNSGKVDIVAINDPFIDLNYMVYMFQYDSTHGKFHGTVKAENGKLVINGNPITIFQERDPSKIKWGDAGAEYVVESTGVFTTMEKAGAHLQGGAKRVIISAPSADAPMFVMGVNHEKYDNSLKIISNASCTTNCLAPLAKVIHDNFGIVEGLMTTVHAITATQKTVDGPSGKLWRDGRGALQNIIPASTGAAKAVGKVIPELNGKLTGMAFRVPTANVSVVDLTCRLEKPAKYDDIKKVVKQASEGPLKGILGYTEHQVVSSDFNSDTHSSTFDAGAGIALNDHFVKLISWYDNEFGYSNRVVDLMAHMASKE
Chain of Peroxisome proliferator-activated receptor gamma/Nuclear receptor coactivator 1 (P37231 whole entry): as the sequence (P37231 whole entry) above
Chain of Peroxisome proliferator-activated receptor gamma/Nuclear receptor coactivator 1 (Q15788 whole entry, further chain): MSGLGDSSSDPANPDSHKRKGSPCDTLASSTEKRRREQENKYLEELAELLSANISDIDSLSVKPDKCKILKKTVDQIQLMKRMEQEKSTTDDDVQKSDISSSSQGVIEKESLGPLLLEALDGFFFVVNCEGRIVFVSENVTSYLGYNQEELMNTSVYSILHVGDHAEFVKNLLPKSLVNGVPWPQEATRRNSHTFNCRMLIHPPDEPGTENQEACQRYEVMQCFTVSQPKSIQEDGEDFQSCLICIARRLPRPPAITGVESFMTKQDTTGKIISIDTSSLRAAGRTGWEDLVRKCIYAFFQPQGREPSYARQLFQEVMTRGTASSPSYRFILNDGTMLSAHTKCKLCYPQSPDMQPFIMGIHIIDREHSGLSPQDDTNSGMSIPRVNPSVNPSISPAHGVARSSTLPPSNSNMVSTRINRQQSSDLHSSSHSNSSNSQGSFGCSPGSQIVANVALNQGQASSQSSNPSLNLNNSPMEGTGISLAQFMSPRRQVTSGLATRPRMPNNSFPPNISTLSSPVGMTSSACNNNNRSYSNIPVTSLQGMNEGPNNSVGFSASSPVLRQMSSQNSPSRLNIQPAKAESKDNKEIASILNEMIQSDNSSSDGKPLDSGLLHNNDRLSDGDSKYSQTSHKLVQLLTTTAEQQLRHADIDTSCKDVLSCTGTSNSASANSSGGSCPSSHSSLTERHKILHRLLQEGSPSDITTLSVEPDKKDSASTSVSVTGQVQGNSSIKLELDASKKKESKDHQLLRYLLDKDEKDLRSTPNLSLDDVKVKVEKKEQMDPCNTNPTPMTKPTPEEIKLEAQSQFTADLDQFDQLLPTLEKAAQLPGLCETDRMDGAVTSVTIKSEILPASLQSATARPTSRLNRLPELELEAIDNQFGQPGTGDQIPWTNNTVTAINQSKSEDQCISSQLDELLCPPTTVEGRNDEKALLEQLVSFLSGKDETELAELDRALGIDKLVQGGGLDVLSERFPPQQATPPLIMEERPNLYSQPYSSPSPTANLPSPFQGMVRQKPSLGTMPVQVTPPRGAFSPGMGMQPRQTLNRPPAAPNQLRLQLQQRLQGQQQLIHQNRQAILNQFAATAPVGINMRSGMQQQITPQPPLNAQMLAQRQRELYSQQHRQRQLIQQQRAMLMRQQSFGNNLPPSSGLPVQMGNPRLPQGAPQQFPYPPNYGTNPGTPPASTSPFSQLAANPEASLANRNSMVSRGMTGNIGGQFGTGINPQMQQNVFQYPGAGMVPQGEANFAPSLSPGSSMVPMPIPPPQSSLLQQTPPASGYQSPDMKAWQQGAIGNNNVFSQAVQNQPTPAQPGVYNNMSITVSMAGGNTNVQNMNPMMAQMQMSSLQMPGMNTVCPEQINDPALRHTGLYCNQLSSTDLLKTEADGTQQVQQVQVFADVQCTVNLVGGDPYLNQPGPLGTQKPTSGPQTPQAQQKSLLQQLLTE

## CCn1c(SCC(=O)c2ccccc2)nc2sc3c(c2c1=O)CCN(C)C3
[1]
  EC50: < 0.1 µM (active)
[2]
  EC50: > 60 µM (not active)
Cells [3]
  EC50: 0.061 µM (active)

## CCOc1cc(N2CCOCC2)c(OCC)cc1NC(=O)COc1cccc(CC)c1
[4]
  CC50: > 40 µM (active)

## COCCn1c(C)cc(C(=O)CSc2nc3ccccc3c(=O)n2C(C)COC)c1C (configuration not stated)
HeLa
  CC50: > 99 µM (not active)

## Cc1ccc(NNC(=O)C(O)(c2cccc(C(F)(F)F)c2)c2cccc(C(F)(F)F)c2)cc1
[5]
  AC50: 1.14 µM (active)
Vero
  CC50: 29.8 µM (active)

## CCc1ccc2c(c1)C(c1ccc([N+](=O)[O-])cc1)=NNC(c1ccc(C)cc1)=N2
[6]
  IC50: 15.6 µM (not active)
[4]
  CC50: > 40 µM (active)

## Cn1c(O)c(N=NC(=O)c2cc(-c3cccs3)nc3ccccc23)c2ccccc21
[7]
  EC50: 9.12 µM (active)
Streptokinase A
  EC50: > 150 µM (not active)
[8]
  IC50: 2.73 µM (active)
Streptococcus
  EC50: 16.7 µM (active)
[9]
  IC50: > 111 µM (not active)

## COc1ccc(OCc2cccc(C(=O)O)c2)cc1
[10]
  EC50: 0.121 µM (active)
BJ [11]
  EC50: > 150 µM (inconclusive)
[12]
  EC50: 0.26 µM (active)
[13]
  EC50: 0.267 µM (active)
[14]
  EC50: < 0.1 µM (active)
Cells [15]
  EC50: 0.307 µM (active)
[16]
  AC50: 2.01 µM (active)
[17]
  AC50: > 70 µM (inactive)
BJ [18]
  EC50: 18.8 µM (active)
[19]
  AC50: 1.39 µM (active)
BJ [20]
  EC50: 8.86 µM (active)
[21]
  EC50: 0.305 µM (active)
[22]
  EC50: 9.09 µM (inconclusive)

## O=C(CSc1nnc(-c2ccc(Br)cc2)o1)Nc1cccc2ccccc12
[23]
  EC50: > 38 µM (not active)
[8]
  IC50: 14.3 µM (not active)
[9]
  IC50: > 111 µM (not active)
[24]
  EC50: > 150 µM (inconclusive)

## Cc1ccc(O)c(/C=N/NC(=O)C2=NNC(c3ccccc3)(c3ccccc3)C2)c1
HT-1080
  EC50: > 50 µM (not active)
[25]
  EC50: 5.52 µM (active)

## CCOC(=O)C1CCCCN1C(=O)CCc1c(C)nc2cc(-c3ccccc3)nn2c1C (configuration not stated)
[26]
  IC50: > 100 µM (not active)
[10]
  EC50: 11.1 µM (active)
HT-1080
  EC50: > 50 µM (not active)
[12]
  EC50: 0.972 µM (active)
[13]
  EC50: 1.33 µM (active)
[14]
  EC50: < 0.1 µM (active)
Cells [15]
  EC50: > 12 µM (not active)
[25]
  EC50: > 100 µM (not active)
[21]
  EC50: < 0.1 µM (active)

## O=C(CSc1ncnc2c1oc1ccccc12)Nc1cccc(F)c1
[27]
  EC50: 15.6 µM (not active)
[8]
  IC50: > 148 µM (not active)
[28]
  EC50: > 26.5 µM (inactive)
[29]
  EC50: > 79.4 µM (not active)
[9]
  IC50: > 111 µM (not active)
